The experiment concerns endothelial nitric oxide synthase. The experiment can be described thus: Screen for endothelial nitric oxide synthase inhibiting activity. The format is biochemical, human. The settings on record: reference standard at 1 μM; endothelial enzyme from HUVECs.

This note sets out measurements from patent US6166030A, “Compounds” (priority 1997, dated 2000).

Excerpt: Nitric oxide synthase converts ^3 H-L-arginine into ^3 H-L-citrulline which can be separated by cation exchange chromatography and quantified by scintillation counting.
The enzyme is isolated from human umbilical vein endothelial cells (HUVECs) by a procedure based on that of Pollock et al in Proc. Natl. Acad. Sci., 1991, 88, 10480-10484. HUVECs were purchased from Clonetics Corp (San Diego, Calif., USA) and cultured to confluency. Cells can be maintained to passage 35-40 without significant loss of yield of nitric oxide synthase. When cells reach confluency, they are resuspended in Dulbecco's phosphate buffered saline, centrifuged at 800 rpm for 10 minutes, and the cell pellet is then homogenised in ice-cold 50 mM Tris-HCl, 1 mM EDTA, 10% glycerol, 1 mM phenylmethylsulphonylfluoride, 2 μM leupeptin at pH 4.2. Following centrifugation at 34,000 rpm for 60 minutes, the pellet is solubilised in the homogenisation buffer which also contains 20 mM CHAPS. After a 30 minute incubation on ice, the suspension is centrifuged at 34,000 rpm for 30 minutes. The resulting supernatant is stored at -80° C. until use. […]
Labelled L-citrulline is separated from labelled L-arginine by chromatography over a Dowex AG-50W-X8 200-400 mesh column. […] The L-citrulline is then quantified by scintillation counting. […]

For `N=C(NCCC[C@H](N)C(=O)O)N[N+](=O)[O-]` [N-nitro-L-arginine], the “inhibition of nitric oxide synthetase” value was 70-90%.
